Laboratory results from publication PMC9853869, “The Myxobacterial Antibiotic Myxovalargin: Biosynthesis, Structural Revision, Total Synthesis, and Molecular Characterization of Ribosomal Inhibition” (Journal of the American Chemical Society, 2023).
*1 amine or outer side, *2 acyl side, *3 side chain or, on linkers, in order; H or OH if unused. Where a SMILES comes first, the peptide text is derived from it. [ ]: non-standard residue; d: D form. The star is where a group is joined. X1 = O=C(C[C@H](N[*:1])c1ccc(O)cc1)[*:2]; dVal(3-OH) = CC(C)(O)[C@@H](N)C(=O)O; ΔIle(E) = CC/C(C)=C(/N)C(=O)O; Isovaleryl = CC(C)CC(=O)*; Agmatine = N=C(N)NCCCCN*; NMeA = CN[C@@H](C)C(=O)O; ΔVal = CC(C)=C(N)C(=O)O

What was measured:
[1] = tested on: M. tuberculosis; type: cell-based, Mycobacterium tuberculosis
[2] = tested on: M. tuberculosis MXV-SRM69 (rrl: t2847c, rrl: t2849g, Rv2935/ppsE: G146*); details: MXV-SRM69 (rrl: t2847c, rrl: t2849g, Rv2935/ppsE: G146*, 4 h)

## CC/C(C)=C(/NC(=O)[C@H](NC(=O)[C@@H](NC(=O)[C@@H](CCCNC(=N)N)NC(=O)C(NC(=O)[C@H](NC(=O)C[C@H](NC(=O)[C@H](NC(=O)[C@H](NC(=O)[C@H](C)N(C)C(=O)[C@H](C)NC(=O)C(NC(=O)CC(C)C)=C(C)C)C(C)C)C(C)C)c1ccc(O)cc1)C(C)C)=C(C)C)C(C)C)C(C)C)C(=O)N[C@H](C)C(=O)N[C@@H](C(=O)NCCCCNC(=N)N)C(C)(C)O [MyxA, Myxovalargin A] (Isovaleryl-[ΔVal]A[NMeA][dV][dV][X1][dV][ΔVal][dR]V[dV][ΔIle(E)][dA][dVal(3-OH)]-Agmatine)
[1]
  MIC shift of resistant mutant strains: > 40 fold
  frequency of spontaneous resistance mutants: ~6 × 10^–7
[2]
  MIC: >210 µg/mL
